Experimental data taken from PubChem BioAssay (NCI).
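Five compound concentrations were applied to cells in 96-well plates for 48 hours; endpoints were derived by simple linear interpolation of the resulting dose-response curve. GI50 marks 50% less growth. TGI: total growth inhibition.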

Key:
Assay in all cases: DTP human tumour cell line panel, 48 h
[1] = system: SF-295 CNS
[2] = system: MDA-MB-231 breast
[3] = system: DU-145 prostate
[4] = system: A549 NSCLC
[5] = system: HT29 colon
[6] = system: NCI-H226 lung

SMILES	TGI [1] [µM]	TGI [2] [µM]	TGI [3] [µM]	TGI [4] [µM]	TGI [5] [µM]	TGI [6] [µM]	GI50 [1] [µM]	GI50 [2] [µM]	GI50 [3] [µM]	GI50 [4] [µM]	GI50 [5] [µM]
Cc1ccc(C2SC(N)=Nc3c2c(C)nn3C(=O)c2ccncc2)cc1 (configuration not stated)	> 10	> 10	> 10	> 10	> 10	> 10					
COc1ccc(-c2nc3ccc(C)cc3o2)c(OC)c1	46.8	50.5	50.5	> 67.4	30.2	79.1					
O=[N+]([O-])c1cc(Cl)ccc1S(=O)(=O)c1ccccc1	> 100	> 100	> 100	> 100	> 100	> 100					
COc1ccc(C2=C(OC(C)=O)c3cccn3-c3ccccc3S2)cc1	5.03	> 10	> 10	> 10	> 10						
COc1cc2cc(C(=O)N3CC(COS(C)(=O)=O)c4c3cc([N+](=O)[O-])c3ccccc43)[nH]c2c(OC)c1OC (configuration not stated)	> 31.6	> 100	> 22.4	> 31.6	> 31.6	> 100					
CC1C(c2ccccc2O)c2cc3c(cc2OC1N1CCCC1)OCO3 (configuration not stated)	74.9	61.2	> 100	> 100	30.8	> 100					
COC(=O)c1ccccc1CC1Cc2cc3c(cc2C1)CCC3	> 100	> 100	> 100	> 100	> 100	> 100					
CC(O[Si](C)(C)C(C)(C)C)[C@H](NC(=O)OCC(Cl)(Cl)Cl)C(=O)O (some centres not stated)	> 100	> 100	> 100	> 100	> 100	> 100					
Cc1c(-c2ccccc2)n(C)c2cn[nH]c(=O)c12	65.1	36.9	> 100	> 100	81.3						
O=S(=O)(Nc1ccccc1S(=O)(=O)c1ccccc1)c1ccccc1	> 100	> 100	> 100	> 100	> 100	> 100					
CCCCc1ccc(Nc2nc(Cl)c3[nH]cnc3n2)cc1	34.6	30.2	61.8	> 100	36.3	> 100					
O=C(c1nsc(Cl)c1Cl)N1CCCCC1	> 100	> 100	> 100	> 100	> 100	> 100					
CNC(=O)N(CCC#N)CCN(CCN(C(=O)NC)c1ccccc1)C(=O)NC	> 100	> 100	> 100	> 100	> 100	> 100					
Clc1ccc2c(NCCNc3nc(-c4ccccc4)cc(-c4ccccc4)n3)ccnc2c1	3.39	3.44	3.45	3.78	3.31		1.76	1.85	1.79	2	1.66
COc1cc(Cn2c3c(c4cc(O)ccc42)C(=O)c2ccccc2C3=O)cc(OC)c1	23.6	23.6	60.6	49.6	16.2						
CC(=O)CN=C(C)NNc1ccc([N+](=O)[O-])cc1[N+](=O)[O-]	> 100	> 100	> 100	> 100	> 100	> 100					
N#Cc1c(N2CCOCC2)ncn(-c2ccccc2)c1=O	> 100		> 100	> 100		> 100					
CC(C)(C)OC(=O)C1/C(=C/CO)CN1C(=O)OC(C)(C)C (configuration not stated)	> 100			> 100	> 100						
Cc1cc2c3c(ccc4ncc(c43)CN2c2ccc(NS(C)(=O)=O)cc2)[nH]1	> 100	68.1	> 100	88.5	> 100	78.3					
COC(=O)[C@]1(c2cc3ccccc3n2S(=O)(=O)c2ccccc2)CC2CCC1NC2 (some centres not stated)	31.2	27.1	30.4	25.2	25.7	33.2					
CC(=O)OC1CC(OC2C(O)CC(OC3C(O)CC(OC4CCC5(C)C(CCC6C5CC(O)C5(C)C(C7=CC(=O)OC7)CCC65O)C4)OC3C)OC2C)OC(C)C1O (configuration not stated) (tested in a mixture with another compound)	0.133	0.518	0.0377	0.0259	0.0954	0.176					
CCOC(=O)Cn1nc2ccc(Nc3nc4ccccc4nc3C(=O)OCC)cc2n1	> 100		> 100	> 100	> 100	> 100					
Nc1nc(Nc2ccc(Cl)cc2)sc1C(=O)c1cc2ccccc2oc1=O		> 100	> 100	> 100	> 100	> 100					
CC(C)C1OCC(CO)CO1 (configuration not stated)	> 100	> 100	> 100	> 100	> 100	> 100					
Nc1nc(Cl)cc(Nc2ccc3c(c2)CCC3)n1	> 100	> 100	> 100	> 100	> 100	> 100					
CN1N=C(c2ccncc2)OC1c1ccc(Cl)c(Cl)c1 (configuration not stated)	> 100	> 100	> 100	> 100	> 100	> 100					
OCCOCCO[P+]1(OCCOCCO)n2c3ccc2C(c2ccccc2)=C2C=CC(=N2)C(c2ccccc2)=c2ccc(n21)=C(c1ccccc1)C1=NC(=C3c2ccccc2)C=C1	1.03	0.247	1.72	3.29	0.358						
CC(=O)Oc1ccc(-c2cc3ccccc3oc2=O)cc1OC(C)=O	67.9	> 100	> 100	94.7	> 100	> 100					
CCCNc1[nH]c(C(C)=O)c(N)c1C(=S)Nc1ccccc1	> 100	> 100	> 100	> 100	53.2	75					
